Measured values taken from ChEMBL document CHEMBL1201862, “PubChem BioAssay data set” (2004).
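Briefly, cells in 96-well plates were exposed to five compound concentrations for 48 h, and endpoints were estimated by linear interpolation. Here, GI50 denotes the concentration required for 50% inhibition of growth.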 The source made the active and inactive calls. No stated cut-off is given here; in the data, active = GI50 up to about 1.1 µM and inactive = higher.

Legend:
Assay in all cases: NCI anticancer screen, dose series, 48 h
NCI-H522 = system: NCI-H522
HT-29 = system: HT-29
A498 = system: A498
HCT-116 = system: HCT-116
NCI-H23 = system: NCI-H23
MDA-N = system: MDA-N
KM12 = system: KM12
T47D = system: T47D
K562 = system: K562
OVCAR-3 = system: OVCAR-3
RPMI-8226 = system: RPMI-8226
DU-145 = system: DU-145
OVCAR-4 = system: OVCAR-4
UO-31 = system: UO-31
SK-MEL-5 = system: SK-MEL-5
SK-OV-3 = system: SK-OV-3
OVCAR-5 = system: OVCAR-5
MDA-MB-435 = system: MDA-MB-435
LOX IMVI = system: LOX IMVI
BT-549 = system: BT-549
OVCAR-8 = system: OVCAR-8
SF-539 = system: SF-539
MOLT-4 = system: MOLT-4
HL-60 = system: HL-60
COLO 205 = system: COLO 205
786-0 = system: 786-0
Malme-3M = system: Malme-3M
M14 = system: M14
NCI-H460 = system: NCI-H460
RXF 393 = system: RXF 393
MDA-MB-231 = system: MDA-MB-231
SK-MEL-28 = system: SK-MEL-28
NCI-H226 = system: NCI-H226
HOP-92 = system: HOP-92
SF-268 = system: SF-268
SK-MEL-2 = system: SK-MEL-2
CAKI-1 = system: CAKI-1
IGROV-1 = system: IGROV-1
PC-3 = system: PC-3
MCF7 = system: MCF7
A549 = system: A549
HCT-15 = system: HCT-15
NCI/ADR-RES = system: NCI/ADR-RES
HCC 2998 = system: HCC 2998
SR = system: SR
Hs-578T = system: Hs-578T
CCRF-CEM = system: CCRF-CEM
SNB-75 = system: SNB-75
UACC-62 = system: UACC-62
SN12C = system: SN12C
SW-620 = system: SW-620
EKVX = system: EKVX
SF-295 = system: SF-295
SNB-19 = system: SNB-19
U-251 = system: U-251
ACHN = system: ACHN
UACC-257 = system: UACC-257

Q: What does the source list for `NC1=NN(c2ccccc2)C2(O)c3ccncc3C3=NN(c4ccccc4)C(=O)C132` (configuration not stated)?
A: GI50 (NCI-H522): > 100 µM (inactive); GI50 (HT-29): > 100 µM (inactive); GI50 (A498): > 100 µM (inactive); GI50 (HCT-116): > 100 µM (inactive); GI50 (NCI-H23): > 100 µM (inactive); GI50 (MDA-N): > 100 µM (inactive); GI50 (KM12): > 100 µM (inactive); GI50 (T47D): > 100 µM (inactive); GI50 (K562): > 100 µM (inactive); GI50 (OVCAR-3): > 100 µM (inactive); GI50 (RPMI-8226): > 100 µM (inactive); GI50 (DU-145): > 100 µM (inactive); GI50 (OVCAR-4): 51.2 µM (inactive); GI50 (UO-31): > 100 µM (inactive); GI50 (SK-MEL-5): > 100 µM (inactive); GI50 (SK-OV-3): > 100 µM (inactive); GI50 (OVCAR-5): > 100 µM (inactive); GI50 (MDA-MB-435): > 100 µM (inactive); GI50 (LOX IMVI): > 100 µM (inactive); GI50 (BT-549): > 100 µM (inactive); GI50 (OVCAR-8): > 100 µM (inactive); GI50 (SF-539): > 100 µM (inactive); GI50 (MOLT-4): > 100 µM (inactive); GI50 (HL-60): > 100 µM (inactive); GI50 (COLO 205): > 100 µM (inactive); GI50 (786-0): > 100 µM (inactive); GI50 (Malme-3M): 63.1 µM (inactive); GI50 (M14): > 100 µM (inactive); GI50 (NCI-H460): > 100 µM (inactive); GI50 (RXF 393): > 100 µM (inactive); GI50 (MDA-MB-231): > 100 µM (inactive); GI50 (SK-MEL-28): > 100 µM (inactive); GI50 (NCI-H226): > 100 µM (inactive); GI50 (HOP-92): > 100 µM (inactive); GI50 (SF-268): > 100 µM (inactive); GI50 (SK-MEL-2): > 100 µM (inactive); GI50 (CAKI-1): > 100 µM (inactive); GI50 (IGROV-1): > 100 µM (inactive); GI50 (PC-3): > 100 µM (inactive); GI50 (MCF7): > 100 µM (inactive); GI50 (A549): > 100 µM (inactive); GI50 (HCT-15): > 100 µM; GI50 (NCI/ADR-RES): > 100 µM (inactive); GI50 (HCC 2998): > 100 µM (inactive); GI50 (SR): > 100 µM (inactive); GI50 (Hs-578T): > 100 µM (inactive); GI50 (CCRF-CEM): > 10 µM (inactive); GI50 (SNB-75): > 100 µM (inactive); GI50 (UACC-62): > 100 µM (inactive); GI50 (SN12C): > 100 µM (inactive); GI50 (SW-620): > 100 µM (inactive); GI50 (EKVX): > 100 µM (inactive); GI50 (SF-295): > 100 µM (inactive); GI50 (SNB-19): > 100 µM (inactive); GI50 (U-251): > 100 µM (inactive); GI50 (ACHN): > 100 µM (inactive); GI50 (UACC-257): > 100 µM (inactive)
